Experimental data from patent publication US6900343B1, “Method for the purification of metallocenes” (Basell Polyolefine GmbH, priority 1998, dated 2005).

Assays:
[1] = Solubility comparison in toluene at room temperature
[2] = Propylene polymerization with supported metallocene/MAO/SiO2 catalyst; settings: supported on SiO2 with MAO (Al/Zr=215); liquid propylene, 60° C., 1 hour
Description: 35.1 mg (0.047 mmol) of (1) were stirred in 2.1 ml of 30% strength MAO solution in toluene (Al/Zr=215) for 60 minutes at room temperature. 2 g of SiO2 (Grace XPO2107, pretreated at 140° C., 10 mbar, 10 hours) were subsequently added and the mixture was stirred for another 10 minutes. The solvent was removed in an oil pump vacuum.
A dry 2 l reactor was flushed firstly with nitrogen and subsequently with propylene and charged with 1.5 l of liquid propylene. 2 ml of TEA (20% strength in Varsol) were added thereto and the mixture was stirred for 15 minutes. The catalyst system prepared above (0.886 g) was subsequently resuspended in 20 ml of heptane and then injected into the reactor and rinsed in with 15 ml of heptane. The reaction mixture was heated to the polymerization temperature of 60° C. and polymerization was carried out for 1 hour. The polymerization was stopped by venting the remaining propylene. The polymer was dried in a vacuum drying oven. This gave 470 g of polypropylene powder. […] The catalyst activity was 0.53 kg of PP/g of catalyst x h.
27.1 mg (0.047 mmol) of dimethylsilanediylbis(2-methyl-4,5-benzoindenyl)zirconium dichloride were stirred in 2.1 ml of 30% strength MAO solution in toluene (Al/Zr=215) for 60 minutes at room temperature. […]

Molecule | solubility [1] | catalyst activity [2]
CC1=Cc2c(ccc3ccccc23)[C]12[Si](C)(C)[C]1(C(C)=Cc3c1ccc1ccccc31)[Zr]2([Cl])[Cl] (stereo not shown) [dimethylsilanediylbis(2-methyl-4,5-benzoindenyl)zirconium dichloride, reference compound] | about 0.36 mmol/l | 0.46 kg of PP/g of catalyst x h
CCC(C)(C)c1ccc([O][Zr]2([Cl])[C]3(C(C)=Cc4c3ccc3ccccc43)[Si](C)(C)[C]23C(C)=Cc2c3ccc3ccccc23)c(C(C)(C)CC)c1 (stereo not shown) [Compound 6, Dimethylsilanediylbis(2-methyl-4,5-benzoindenyl)-zirconium Monochloride mono(2,4-di-tert-pentylphenoxide)] | about 17.7 mmol/l | 
Dimethylsilanediyl-bis(2-methylindenyl)zirconium Monochloride mono(2,4-di-tert-butylphenoxide) [Compound 2] | > 15 mM | 
CC1=Cc2c(ccc3ccccc23)[C]12[Si](C)(C)[C]1(C(C)=Cc3c1ccc1ccccc31)[Zr]2([Cl])[O]c1ccc(C(C)(C)C)cc1C(C)(C)C (stereo not shown) [Compound 1, Dimethylsilanediylbis(2-methyl-4,5-benzoindenyl)zirconium Monochloride mono(2,4-di-tert-butylphenoxide)] | > 13 mM | 0.53 kg of PP/g of catalyst x h
Cc1cc2ccccc2[c-]1[Si](C)(C)[c-]1c(C)cc2ccccc21.[Cl-].[Cl-].[Zr+4] (stereo not shown) [dimethylsilanediylbis(2-methylindenyl)zirconium dichloride, reference compound] | about 2.1 mmol/l | 
